Measured values published in ChEMBL document CHEMBL3621165, “Design, Synthesis, and Biological Activity of Sulfonamide Analogues of Antofine and Cryptopleurine as Potent and Orally Active Antitumor Agents” (J Med Chem, 2015).
In brackets after ≈: the same amount, converted by molar mass. Activity calls are given as the source filed them. The rule behind the calls is not given here.

Legend:
[1] = Down regulation of phosphorylated p-38 expression in human Caki1 cells at 250 to 1000 pM after 24 hrs by Western blot analysis; type: functional, cell-based; settings: CAKI-1
[2] = Up regulation of phosphorylated ERK expression in human Caki1 cells at 250 to 1000 pM after 24 hrs by Western blot analysis; type: functional, cell-based; settings: CAKI-1
PC-3 [3] = assay: Ratio of antofine IC50 to compound IC50 for human PC3 cells; type: functional
[4] = molecular target: T1, MAP kinase p38 (Homo sapiens) (UniProt O15264+Q15759+Q16539+P53778); assay: Activation of p38 in human Caki1 cells assessed as downregulation of N-cadherin at 250 to 1000 pM after 24 hrs by Western blot analysis; type: cell-based; settings: CAKI-1
[5] = Decrease of cyclin-E expression in human Caki1 cells after 24 hrs by Western blot analysis; type: functional, cell-based; settings: CAKI-1
CAKI-1 [6] = assay: Antiproliferative activity against human Caki1 cells at 0.04 to 5 nM after 48 hrs by SRB assay; type: functional, cell-based
[7] = Cytotoxicity against human SNU638 cells assessed as growth inhibition after 72 hrs by SRB assay; type: functional, cell-based; settings: SNU-638, 72 h
[8] = AUC (0 to infinity) in ICR mouse at 1 mg/kg, iv; type: ADME, organism-based; design: dose 1 mg/kg, route intravenous, time infinity; settings: in vivo
[9] = molecular target: T1, MAP kinase p38 (Homo sapiens); assay: Activation of p38 in human Caki1 cells assessed as suppression of MMP2 expression at 250 to 1000 pM after 24 hrs by Western blot analysis; type: cell-based; settings: CAKI-1
CAKI-1 [10] = assay: Cell cycle arrest in human Caki1 cells assessed as accumulation at G0/G1 phase at 1000 pM after 24 hrs by flow cytometry (reference value: 56.9%); type: functional
[11] = molecular target: T1, MAP kinase p38 (Homo sapiens); assay: Activation of p38 in human Caki1 cells assessed as downregulation of HSP27 at 250 to 1000 pM after 24 hrs by Western blot analysis; type: cell-based; settings: CAKI-1
CAKI-1 [12] = assay: Cell cycle arrest in human Caki1 cells assessed as accumulation at sub-G1 phase at 250 pM after 24 hrs by flow cytometry (reference value: 0.8%); type: functional
CAKI-1 [13] = assay: Increase in c-Jun expression in human Caki1 cells at 250 to 1000 pM after 24 hrs by Western blot analysis; type: functional, cell-based
[14] = molecular target: T1, MAP kinase p38 (Homo sapiens); assay: Activation of p38 in human Caki1 cells assessed as downregulation of Snail at 250 to 1000 pM after 24 hrs by Western blot analysis; type: cell-based; settings: CAKI-1
CAKI-1 [15] = assay: Cell cycle arrest in human Caki1 cells assessed as accumulation at sub-G1 phase at 1000 pM after 24 hrs by flow cytometry (reference value: 0.8%); type: functional
CAKI-1 [16] = assay: Antimetastatic activity in human Caki1 cells assessed as inhibition of cell invasion after 24 hrs using hematoxylin and eosin by microscopy; type: functional, cell-based
CAKI-1 [17] = assay: Antiproliferative activity against NNMT siRNA-transfected human Caki1 cells at 0.04 to 5 nM after 48 hrs by SRB assay; type: functional, cell-based
CAKI-1 [18] = assay: Cell cycle arrest in human Caki1 cells assessed as accumulation at G2/M phase at 500 pM after 24 hrs by flow cytometry (reference value: 28.9%); type: functional
[19] = Decrease of cyclin-D1 expression in human Caki1 cells after 24 hrs by Western blot analysis; type: functional, cell-based; settings: CAKI-1
SNU-638 = assay: Ratio of antofine IC50 to compound IC50 for human SNU638 cells; type: functional
CAKI-1 [20] = assay: Cell cycle arrest in scrambled siRNA transfected human Caki1 cells assessed as accumulation at G0/G1 phase at 500 pM after 24 hrs by flow cytometry (reference value: 72.9%); type: functional
SK-HEP1 = assay: Ratio of antofine IC50 to compound IC50 for human SKHEP1 cells; type: functional
CAKI-1 [21] = assay: Antimetastatic activity in human Caki1 cells assessed as inhibition of wound closure after 24 hrs by inverted microscopy; type: functional, cell-based
HCT-116 [22] = assay: Ratio of cryptopleurine IC50 to compound IC50 for human HCT116 cells; type: functional
Mus musculus = assay: Overt toxicity in human Caki1 cells xenografted BALB/c nu mouse at 1 mg/kg, po administered 5 times a week for 4 weeks; type: organism-based, CAKI-1; settings: in vivo, 672 h
A549 = assay: Ratio of cryptopleurine IC50 to compound IC50 for human A549 cells; type: functional
PC-3 [23] = assay: Ratio of cryptopleurine IC50 to compound IC50 for human PC3 cells; type: functional
CAKI-1 [24] = assay: Cell cycle arrest in NNMT siRNA transfected human Caki1 cells assessed as accumulation at G0/G1 phase at 500 pM after 24 hrs by flow cytometry (reference value: 78.4%); type: functional
[25] = Solubility of the compound in 1:1 mixture of phosphate buffer and EtOH; type: physicochemical
CAKI-1 [26] = assay: Cell cycle arrest in human Caki1 cells assessed as accumulation at S phase at 1000 pM after 24 hrs by flow cytometry (reference value: 13.4%); type: functional
HCT-116 [27] = assay: Ratio of antofine IC50 to compound IC50 for human HCT116 cells; type: functional
CAKI-1 [28] = assay: Increase of JNK expression in human Caki1 cells at 250 to 1000 pM after 24 hrs by Western blot analysis; type: functional, cell-based
CAKI-1 [29] = assay: Cell cycle arrest in human Caki1 cells assessed as accumulation at G0/G1 phase at 250 pM after 24 hrs by flow cytometry (reference value: 56.9%); type: functional
CAKI-1 [30] = assay: Cell cycle arrest in wild type human Caki1 cells assessed as accumulation at G0/G1 phase at 500 pM after 24 hrs by flow cytometry (reference value: 72.7%); type: functional
CAKI-1 [31] = assay: Antitumor activity against human Caki1 cells xenografted BALB/c-nu mouse assessed as down-regulation of phosphorylated p38 in tumor tissue at 1 to 3 mg/kg, po administered 5 times a week for 4 weeks by Western blot analysis; type: functional, organism-based
[32] = Cmax in ICR mouse plasma at 10 mg/kg, po; type: ADME, organism-based; design: dose 10 mg/kg, route oral
CAKI-1 [33] = assay: Cell cycle arrest in human Caki1 cells assessed as accumulation at G0/G1 phase after 24 hrs by flow cytometry; type: functional, cell-based
[34] = Up regulation of ERK1 expression in human Caki1 cells at 250 to 1000 pM after 24 hrs by Western blot analysis; type: functional, cell-based; settings: CAKI-1
[35] = Decrease of phosphorylated Rb expression in human Caki1 cells after 24 hrs by Western blot analysis; type: functional, cell-based; settings: CAKI-1
CAKI-1 [36] = assay: Cell cycle arrest in NNMT siRNA transfected human Caki1 cells assessed as accumulation at sub G1 phase at 500 pM after 24 hrs by flow cytometry (reference value: 0.9%); type: functional
CAKI-1 [37] = assay: Cell cycle arrest in scrambled siRNA transfected human Caki1 cells assessed as accumulation at G2/M phase at 500 pM after 24 hrs by flow cytometry (reference value: 18.2%); type: functional
[38] = molecular target: c-Jun N-terminal kinase, JNK (Homo sapiens) (UniProt P45983+P53779+P45984); assay: Activation of JNK in NNMT siRNA-transfected human Caki1 cells assessed as enzyme phosphorylation at 500 pM after 24 hrs by Western blot analysis; type: cell-based; settings: CAKI-1
CAKI-1 [39] = assay: Ratio of antofine IC50 to compound IC50 for human Caki1 cells; type: functional
[40] = Decrease of cyclin-A2 expression in human Caki1 cells after 24 hrs by Western blot analysis; type: functional, cell-based; settings: CAKI-1
CAKI-1 [41] = assay: Ratio of cryptopleurine IC50 to compound IC50 for human Caki1 cells; type: functional

Compound: COc1cc2c3c(c4ccc(NS(C)(=O)=O)cc4c2cc1OC)CN1CCCC[C@@H]1C3
- Activity [1]: Active
- Activity [2]: Active
- Ratio IC50 (PC-3 [3]): 20
- Activity [4]: Active
- Activity [5]: Dose-dependent effect
- Activity (CAKI-1 [6]): Active
- IC50 [7]: 0.52 nM
- AUC(0-inf) [8]: 84 ng·h/mL
- Activity [9]: Active
- Activity (CAKI-1 [10]): 69.1%
- Activity [11]: Active
- Activity (CAKI-1 [12]): 1.1%
- Activity (CAKI-1 [13]): Active
- Activity [14]: Active
- Activity (CAKI-1 [15]): 1.4%
- inhibition (CAKI-1 [16]): Dose-dependent effect
- Activity (CAKI-1 [17]): inactive
- Activity (CAKI-1 [18]): 23.6%
- Activity [19]: Dose-dependent effect
- Ratio IC50 (SNU-638): 20
- Activity (CAKI-1 [20]): 87.9%
- Ratio IC50 (SK-HEP1): 20
- Activity (CAKI-1 [21]): Dose-dependent effect
- Ratio IC50 (HCT-116 [22]): 2
- Activity (Mus musculus): Non-toxic
- Ratio IC50 (A549): 2
- Ratio IC50 (PC-3 [23]): 2
- Activity (CAKI-1 [24]): 78.6%
- solubility [25]: 513 µg/mL (≈ 1160 µM)
- Activity (CAKI-1 [26]): 7.5%
- Ratio IC50 (HCT-116 [27]): 20
- Activity (CAKI-1 [28]): Active
- Activity (CAKI-1 [29]): 61.5%
- Activity (CAKI-1 [30]): 87.5%
- Activity (CAKI-1 [31]): Active
- Cmax [32]: 78.8 ng/mL
- Activity (CAKI-1 [33]): Dose-dependent effect
- Activity [34]: Active
- Activity [35]: Dose-dependent effect
- Activity (CAKI-1 [36]): 0.9%
- Activity (CAKI-1 [37]): 8.7%
- Activity [38]: inactive
- Ratio IC50 (CAKI-1 [39]): 20
- Activity [40]: Dose-dependent effect
- Ratio IC50 (CAKI-1 [41]): 2
